Like-named read-outs stand apart in the source and are kept apart here.

What all share (assay type): in vivo
Assay [1] relates to Puccinia triticina; synonym: Puccinia recondita f. sp. tritici. Put plainly: Fungicide mobility (dropline mobility test): wheat brown rust (PUCCRT). To be noted: 1 ug/leaf. The method in brief:
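A 2 μl drop of formulated compound (EC blank, 110 ppm Triton X-100 water) was applied to a line 5 cm from the tip of primary leaves of "Yuma" wheat seedlings, 6 replicates. Inoculation with PUCCRT was done 1 day after or 3 days before application. Once disease was fully expressed on controls, the acropetal disease-free zone was measured as percent of line-to-tip distance.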

In assay [2] the test system is Mycosphaerella graminicola; anamorph: Septoria tritici. The experiment in a line: Fungicidal activity: leaf blotch of wheat (SEPTTR), wheat seedlings. The note with it: Zymoseptoria tritici, 100 ppm, wheat. Put shortly: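 Compounds in acetone were diluted with nine volumes of water containing 110 ppm Triton X-100 and sprayed to run-off on Yuma wheat seedlings at first-leaf stage. Septoria tritici spores were inoculated before or after treatment, followed by dew chambers at 100% RH and 20 °C, then greenhouse at 20 °C. Severity (0–100%) was scored once untreated plants were fully diseased; control was calculated relative to untreated plants.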

Assay [3] relates to Phakopsora pachyrhizi. The experiment in a line: Fungicidal activity: Asian soybean rust (PHAKPA). To be noted: 25 ppm; for Disease Control PHAKPA 1DP: 1 Day Protectant; for Disease Control PHAKPA 3DC: 3 Day Curative. On the procedure:
Evaluation of Fungicidal Activity: Asian Soybean Rust (Phakopsora pachyrhizi; Bayer Code […]) Technical grades of materials were dissolved in acetone, which were then mixed with nine volumes of water containing 0.011% Tween 20. The fungicide solutions were applied onto soybean seedlings using an automated booth sprayer to run-off. All sprayed plants were allowed to air dry prior to further handling. Soybean plants (variety Williams 82) were grown in soil-less Metro mix, with one plant per pot. Two weeks old seedlings were used for testing. […] Plants were incubated for 24 h in a dark dew room at 22° C. and 100% RH then transferred to a growth room at 23° C. for disease to develop. Disease severity was assessed on the sprayed leaves.

The test system of assay [4] is Venturia inaequalis. Put plainly: Fungicidal activity: apple scab (VENTIN). To be noted: 24 h, 1 Day Protectant, read-out: Disease Control VENTIN 1 DP. On the procedure:
Technical grades of materials were dissolved in acetone, which were then mixed with nine volumes of water containing 110 ppm Triton X-100. The fungicide solutions were applied onto wheat seedlings using an automated booth sprayer to run-off. All sprayed plants were allowed to air dry prior to further handling. Wheat plants (variety Yuma) were grown from seed in a greenhouse in 50% mineral soil/50% soil-less Metro mix until the first leaf was fully emerged, with 7-10 seedlings per pot. These plants were inoculated with an aqueous spore suspension of Septoria tritici either prior to or after fungicide treatments. After inoculation the plants were kept in 100% relative humidity (one day in a dark dew chamber followed by two to three days in a lighted dew chamber at 20° C.) to permit spores to germinate and infect the leaf. The plants were then transferred to a greenhouse set at 20° C. for disease to develop. When disease symptoms were fully expressed on the 1st leaves of untreated plants, infection levels were assessed on a scale of 0 to 100 percent disease severity. Percent disease control was calculated using the ratio of disease severity on treated plants relative to untreated plants. Evaluation of Fungicidal Activity: Apple Scab (Venturia inaequalis; Bayer Code […]) Apple seedlings (variety McIntosh) were grown in soil-less Metro mix, with one plant per pot. Seedlings with two expanding young leaves at the top (older leaves at bottom of the plants were trimmed) were used in the test. Plants were inoculated with a spore suspension of Venturia inaequalis 24 hr after fungicide treatment and kept in a 22° C. dew chamber with 100% RH for 48 hr, and then moved to a greenhouse set at 20° C. for disease to develop. Fungicide formulation, application and disease assessment on the sprayed leaves followed the procedures as described in the Example A.

Assay [5] concerns Magnaporthe grisea; anamorph: Pyricularia oryzae. The experiment in a line: whole plant or invertebrate. The note with it: 24 h, read-out: Disease Control PYRIOR 1 DP.
Assay [6] has as its system Blumeria graminis f.sp. tritici; synonym: Erysiphe graminis f.sp. tritici. The experiment in a line: Fungicidal activity: wheat powdery mildew (ERYSGT). The note with it: 24 h, 1 Day Protectant, read-out: Disease Control ERYSGT 1 DP. As to the method:
Technical grades of materials were dissolved in acetone, which were then mixed with nine volumes of water containing 110 ppm Triton X-100. The fungicide solutions were applied onto wheat seedlings using an automated booth sprayer to run-off. All sprayed plants were allowed to air dry prior to further handling. Wheat plants (variety Yuma) were grown from seed in a greenhouse in 50% mineral soil/50% soil-less Metro mix until the first leaf was fully emerged, with 7-10 seedlings per pot. These plants were inoculated with an aqueous spore suspension of Septoria tritici either prior to or after fungicide treatments. After inoculation the plants were kept in 100% relative humidity (one day in a dark dew chamber followed by two to three days in a lighted dew chamber at 20° C.) to permit spores to germinate and infect the leaf. The plants were then transferred to a greenhouse set at 20° C. for disease to develop. When disease symptoms were fully expressed on the 1st leaves of untreated plants, infection levels were assessed on a scale of 0 to 100 percent disease severity. Percent disease control was calculated using the ratio of disease severity on treated plants relative to untreated plants. Evaluation of Fungicidal Activity: Wheat Powdery Mildew (Blumeria graminis f.sp. tritici; Synonym: Erysiphe graminis f.sp. tritici; Bayer Code […]) Wheat plants (variety Yuma) were grown from seed in a greenhouse in 50% mineral soil/50% soil-less Metro mix until the first leaf was fully emerged, with 7-10 seedlings per pot. These plants were inoculated by dusting with infected stock plants 24 hr after fungicide treatments. After inoculation the plants were kept in a greenhouse set at 20° C. for disease to develop. Fungicide formulation, application and disease assessment on the sprayed leaves followed the procedures as described in the Example A.

The mark [7] stands for this setting: 24 h, 1 Day Protectant Mobility, read-out: Dropline Mobility Test PUCCRT 1DPM.
Setting [8] is: 72 h, 3 Day Curative Mobility, read-out: Dropline Mobility Test PUCCRT 3DCM.
The mark [9] stands for this setting: 24 h, 1 Day Protectant, read-out: Disease Control SEPTTR 1DP.
[10] abbreviates: 72 h, 3 Day Curative, read-out: Disease Control SEPTTR 3DC.

Regarding `COc1ccnc(C(=O)N[C@H]2COC[C@H](OCC(C)C)[C@@H](OCC(C)C)[C@H](C)OC2=O)c1OCOC(=O)C(C)C` [Compound 2], the pest or weed control at 1 µg/leaf in assay [1] (setting [7]) and in assay [1] (setting [8]) was 80 to 100% in each case. For the same compound, the pest or weed control at 100 ppm in assay [2] (setting [9]) and in assay [2] (setting [10]) was 80 to 100% each time.
For the compound `COc1ccnc(C(=O)N[C@H]2COC[C@H](OCC(C)C)[C@@H](OCC(C)C)[C@H](C)OC2=O)c1OCOC(C)=O` [Compound 3, (2-((3S,7S,8S,9S)-7,8-diisobutoxy-9-methyl-2-oxo-1,5-dioxonan-3-ylcarbamoyl)-4-methoxypyridin-3-yloxy)methyl], in assay [3], the “Disease Control PHAKPA 1DP” value is listed as “A (80-100)”. For the same compound, the pest or weed control at 100 ppm in assay [4] was 0 to 80%; in assay [5], 80 to 100%; in assay [2] (setting [9]) it was 80 to 100%; in assay [2] (setting [10]), 80 to 100%; in assay [6] it was 80 to 100%. Further, the pest or weed control at 1 µg/leaf in assay [1] (setting [7]) and in assay [1] (setting [8]) was 80 to 100% in each case.
As for `COc1ccnc(C(=O)NC2COC[C@H](OCc3ccccc3)[C@@H](OCc3ccccc3)[C@H](C)OC2=O)c1OCOC(C)=O` (stereo partly drawn) [Compound 12], the pest or weed control at 100 ppm lay within 0 to 80% in assay [4]; 80 to 100% in assay [5]; 80 to 100% in assay [2] (setting [9]); 80 to 100% in assay [2] (setting [10]); 0 to 80% in assay [6]. Also, the pest or weed control at 1 µg/leaf in assay [1] (setting [7]) and in assay [1] (setting [8]) was 0 to 80% throughout.
`CCCCO[C@H]1COC[C@H](NC(=O)c2nccc(OC)c2OCOC(C)=O)C(=O)O[C@@H](C)[C@@H]1OCCOC` [Compound 54]: the pest or weed control at 100 ppm in assay [5], in assay [2] (setting [9]), in assay [2] (setting [10]) and in assay [6] was 0 to 80% each time.
Regarding `CCCCO[C@H]1COC[C@H](NC(=O)c2nccc(OC)c2OCOC(C)=O)C(=O)O[C@@H](C)[C@@H]1OCC(F)F` [Compound 55], the pest or weed control at 100 ppm lay in the range of 80 to 100% in assay [5], 80 to 100% in assay [2] (setting [9]), 80 to 100% in assay [2] (setting [10]) and 0 to 80% in assay [6].
With `COc1ccnc(C(=O)N[C@H]2COC[C@H](OC(=O)C(C)C)[C@@H](OC(=O)C(C)C)[C@H](C)OC2=O)c1OCOC(C)=O` [Compound 57], the pest or weed control at 100 ppm was in the range of 80 to 100% in assay [5], 80 to 100% in assay [2] (setting [9]), 80 to 100% in assay [2] (setting [10]) and 0 to 80% in assay [6].
As for `COc1ccnc(C(=O)N[C@H]2COC[C@H](OCCCc3ccccc3)[C@@H](OCCCc3ccccc3)[C@H](C)OC2=O)c1OCOC(C)=O` [Compound 60], the pest or weed control at 100 ppm in assay [4] was in the range of 0 to 80%; in assay [5], 80 to 100%; in assay [2] (setting [9]), 80 to 100%; in assay [2] (setting [10]), 0 to 80%; in assay [6], 0 to 80%. Also, the pest or weed control at 1 µg/leaf in assay [1] (setting [7]) lay in the range of 0 to 80%.
With `COc1ccnc(C(=O)N[C@H]2COC[C@H](OC)[C@@H](OC)[C@H](C)OC2=O)c1OCOC(C)=O` [Compound 65], the pest or weed control at 1 µg/leaf in assay [1] (setting [7]) and in assay [1] (setting [8]) was 0 to 80% each time. Also, the pest or weed control at 100 ppm in assay [2] (setting [10]) was 0 to 80%.
Regarding `COc1ccnc(C(=O)N[C@H]2COC[C@H](OCCCC(F)(F)F)[C@@H](OCCCC(F)(F)F)[C@H](C)OC2=O)c1OCOC(C)=O` [Compound 68], the pest or weed control at 100 ppm in assay [4] was in the range of 0 to 80%; in assay [5] it was 80 to 100%; in assay [2] (setting [9]) it was 80 to 100%; in assay [2] (setting [10]), 80 to 100%; in assay [6] it was 0 to 80%. Moreover, the pest or weed control at 1 µg/leaf in assay [1] (setting [7]) and in assay [1] (setting [8]) was 0 to 80% in each case.
Turning to `COc1ccnc(C(=O)N[C@H]2COC[C@H](OCC(C)C)[C@@H](OC3CCCCC3)[C@H](C)OC2=O)c1OCOC(C)=O` [Compound 77], in assay [3], the “Disease Control PHAKPA 1DP” value is reported as “B (More than 0-Less than 80)”. Besides, the pest or weed control at 100 ppm was 0 to 80% in assay [4]; 80 to 100% in assay [5]; 80 to 100% in assay [2] (setting [9]); 80 to 100% in assay [2] (setting [10]); 0 to 80% in assay [6]. Moreover, the pest or weed control at 1 µg/leaf is 80 to 100% in assay [1] (setting [7]) and 0 to 80% in assay [1] (setting [8]).
As to `COc1ccnc(C(=O)N[C@H]2COC[C@H](OCC(C)C)[C@@H](Oc3ccccc3)[C@H](C)OC2=O)c1OCOC(C)=O` [Compound 85], the pest or weed control at 100 ppm in assay [4] lay within 0 to 80%; in assay [5], 80 to 100%; in assay [2] (setting [9]), 80 to 100%; in assay [2] (setting [10]), 80 to 100%; in assay [6], 0 to 80%. The pest or weed control at 1 µg/leaf in assay [1] (setting [7]) and in assay [1] (setting [8]) was 80 to 100% throughout.
As for `CCCO[C@H]1COC[C@H](NC(=O)c2nccc(OC)c2OCOC(C)=O)C(=O)O[C@@H](C)[C@@H]1Oc1ccccc1` [Compound 221], the “Disease Control PHAKPA 1DP” value in assay [3] was “A (80-100)”. Moreover, the “Disease Control PHAKPA 3DC” value in assay [3] is given as “A (80-100)”. Besides, the pest or weed control at 100 ppm in assay [5], in assay [2] (setting [9]) and in assay [2] (setting [10]) was 80 to 100% each time.
For the compound `CCCO[C@H]1[C@H](C)OC(=O)[C@@H](NC(=O)c2nccc(OC)c2OCOC(C)=O)COC[C@@H]1Oc1ccccc1` [Compound 222], the “Disease Control PHAKPA 1DP” value in assay [3] is on record as “A (80-100)”. Besides, the “Disease Control PHAKPA 3DC” value in assay [3] is “A (80-100)”. Also, the pest or weed control at 100 ppm in assay [5], in assay [2] (setting [9]) and in assay [2] (setting [10]) was 80 to 100% throughout.
On to `COc1ccnc(C(=O)N[C@H]2COC[C@H](Oc3ccc(F)cc3)[C@@H](Oc3ccc(F)cc3)[C@H](C)OC2=O)c1OC(C)=O` [Compound 229, 2-(((3S,7S,8S,9S)-7,8-bis(4-fluorophenoxy)-9-methyl-2-oxo-1,5-dioxonan-3-yl)carbamoyl)-4-methoxypyridin-3-yl acetate], for which the pest or weed control at 100 ppm in assay [5] is 80 to 100%.
Take `COc1ccnc(C(=O)N[C@H]2COC[C@H](Oc3ccc(F)cc3)[C@@H](Oc3ccc(F)cc3)[C@H](C)OC2=O)c1OCOC(C)=O` [Compound 231]: the pest or weed control at 100 ppm in assay [4] was 0 to 80%; in assay [5], 80 to 100%.

The record behind these values is patent publication US9144239B2, “Macrocyclic picolinamides as fungicides” (DOW AGROSCIENCES LLC, priority 2012, dated 2015).
